This is an account of results in paper PMC8359942, “Native Mass Spectrometry for the Study of PROTAC GNE‐987‐Containing Ternary Complexes” (Chemmedchem, 2021).

Experiment [1] deals with T1, Brd4 bromodomain 2 (Brd4^B2) (Homo sapiens, UniProt O60885).
T1 construct: bromodomain 2
Put plainly: native nESI-FT-ICR mass spectrometry, binary binding; also […] ternary complex with VCB (maximum ratio […]).

Experiment [2] addresses T2, Brd4 bromodomain 1 (Brd4^B1) (Homo sapiens, UniProt O60885).
T2 construct: bromodomain 1 (avi-tagged, partly biotinylated)
The experiment can be described thus: native nESI-FT-ICR mass spectrometry, binary binding; also […] ternary complex with VCB (maximum ratio […] at […]).

The target of experiment [3] is T3, Von Hippel‐Lindau (VHL) E3‐Ubiquitin Ligase, as VCB complex (Homo sapiens, UniProt P40337).
T3 construct: VHL complexed with Elongins B and C (VCB); with Elongin B and Elongin C
Put plainly: native nESI-FT-ICR mass spectrometry, binary binding; also ternary complex with Brd4 B1 or B2.

T3 sequence (P40337 whole entry): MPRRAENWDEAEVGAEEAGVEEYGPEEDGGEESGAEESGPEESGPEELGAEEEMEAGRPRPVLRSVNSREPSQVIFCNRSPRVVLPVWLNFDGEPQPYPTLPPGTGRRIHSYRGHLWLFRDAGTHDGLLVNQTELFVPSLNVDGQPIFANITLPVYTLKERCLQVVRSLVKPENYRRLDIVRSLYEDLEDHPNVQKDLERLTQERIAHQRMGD
T3 sequence (Q15370 whole entry partner): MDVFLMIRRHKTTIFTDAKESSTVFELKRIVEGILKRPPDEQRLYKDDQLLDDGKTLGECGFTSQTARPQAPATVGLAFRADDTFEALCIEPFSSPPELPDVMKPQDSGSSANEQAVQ
T3 sequence (Q15369 whole entry partner): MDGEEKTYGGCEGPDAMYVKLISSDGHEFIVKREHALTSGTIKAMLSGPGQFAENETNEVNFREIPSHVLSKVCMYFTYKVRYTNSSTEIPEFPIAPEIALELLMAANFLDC

As for GNE-987, the “% bound at 5 μM” value in experiment [1] turned out to be 45 % bound at 5 μM; in experiment [2], 40 % bound at 5 μM; in experiment [3], 57 % bound at 5 μM.
